Where a SMILES comes first, the peptide text is derived from it.
Assays:
whole blood viscosity [1] = experiment: Whole blood viscosity by RBC pipette method, before and after oral APM administration to patients; assay type: in vivo
Procedure: Blood samples were obtained from ten patients having homozygous HgBss disease or heterozygous Hgbsc disease before and after a blinded administration of APM at 1.5 (low dose), 3 (medium dose), or 6 (high dose) milligrams per kilogram body weight. TABLE I: Patient Characteristics
Viscosity determinations using the RBC pipette method of Wright and Jenkins (1970, Blood 36:516) were made on each blinded whole blood sample before and 120 minutes after blinded administration of APM. Each measurement was made in triplicate. Control viscosity measurements using saline and water for each patient and normal whole blood were also made to validate the viscosity measurements.
(§1) To measure viscosity, 1.01 cc of the test fluid, i.e., either water, saline or blood, was drawn into an RBC pipette using a 50 cc syringe attached via rubber tubing to the top of the RBC pipette. Using a constant pressure of 20 mm by maintaining the pressure with visual feedback and hand pressure, the amount of time it took for the test fluid to drip out of the RBC pipette was measured with a stopwatch. Each measurement was made in triplicate. Changes in viscosity from baseline for patient blood samples were recorded and compared to normal controls.

whole blood viscosity [2] = experiment: Whole blood viscosity by RBC pipette method after in vitro addition of APM to patient blood samples; parameters: species or system patients; conditions: for viscosity of the blood samples compared to the control: samples at 480 minutes post-treatment, additional 1 or 2 milligrams/milliliter APM in vitro
Procedure: as §1
Samples with high viscosity readings at 480 minutes or 1,440 minutes post-treatment, chosen to represent patients with a validated response to APM who were returning to normal, were divided and treated with an additional 0, 1, or 2 milligrams/milliliter APM in vitro, in an effort to measure whether a second inducible sickling response was possible and if a second response to the in vitro APM addition could be observed. The viscosity of each sample at 480 minutes post-treatment was measured.

sickle cells = experiment: Metabisulfite slide test to measure sickling in blood samples; assay type: cell-based, patients
[3] = clinical trial; unknown mechanism; cited from earlier work
[4] = system: red blood cells containing HbS; conditions: disclosed in WO 00/18418; cited from earlier work
[5] = all ten patients, baseline vs 120 minutes post-treatment, APM 1.5, 3 or 6 mg/kg body weight

Compound: COC(=O)[C@H](Cc1ccccc1)NC(=O)[C@@H](N)CC(=O)O [APM, N-L-alpha-aspartyl-L-phenylalanine 1-methyl ester] (H-Asp-Phe-OMe)
- viscosity of HgBss blood (whole blood viscosity [1]; APM given orally): reduces
- effect on Hgbsc blood (whole blood viscosity [1]; APM in vivo): not affected
- No. of Patients, Viscosity change decreasing, HgBss (whole blood viscosity [1]; HgBss patients, baseline vs 120 minutes post-treatment): 5
- No. of Patients, Viscosity change increasing, Hgbsc (whole blood viscosity [1]; Hgbsc patients, baseline vs 120 minutes post-treatment): 3
- No. of Patients, Viscosity change decreasing (whole blood viscosity [1]; [5]): 7
- No. of Patients, Viscosity change increasing (whole blood viscosity [1]; [5]): 3
- viscosity compared against Pirofsky's change in viscosity vs. hematocrit standard (whole blood viscosity [1]; blood samples from patients with sickle cell disease (HgBss)): decreased
- viscosity compared against Pirofsky's change in viscosity vs. hematocrit standard (whole blood viscosity [1]; blood samples from patients with sickle cell trait (Hbgsc)): increased
- blood viscosity after treatment over time (whole blood viscosity [1]; five patients identified as HgBss, baseline vs 120 minutes post-treatment): decreased
- No. of Patients, Viscosity change decreasing, sbthal (whole blood viscosity [1]; sbthal patients, baseline vs 120 minutes post-treatment): 2
- viscosity after treatment over time (whole blood viscosity [1]; three patients diagnosed as Hgbsc, baseline vs 120 minutes post-treatment): increased
- blood viscosity after treatment over time (whole blood viscosity [1]; two patients diagnosed as sbthal, baseline vs 120 minutes post-treatment): decreased
- effect on Hgbsc blood (whole blood viscosity [2]; APM in vitro): not affected
- viscosity of the blood samples compared to the control (whole blood viscosity [2]; HgBss patients): decreased
- viscosity of the blood samples compared to the control (whole blood viscosity [2]; Hgbsc patients): increase
- viscosity of HgBss blood (whole blood viscosity [2]; addition of APM in vitro): reduces
- number of sickle cells in HgBss blood (sickle cells; APM given orally): reduces
- number of sickle cells in HgBss blood (sickle cells; addition of APM in vitro): reduces
- pain and inflammation of osteo- and mixed osteo- and rheumatoid arthritis [3]: alleviate
- capacity of red blood cells containing HbS to sickle with hypoxemia [4]: reduction
